Experimental findings from patent US8466289B2, “Heterocyclic sulfonamide derivatives” (Novartis AG, priority 2009, dated 2013) are described below.

The test system of test [1] is BRAF-MEK-ERK cascade (activated BRAF (V599E), unactive MEK1, unactive MAP Kinase 2/ERK2). The test is described as follows: BRAF-MEK-ERK enzymatic cascade assay (TR-FRET). Type of test: biochemical, human. To be noted: compounds screened at 10 μM, 45 minutes pre-incubation with enzymes, 100 μM ATP. The text has this:
A BRAF-MEK-ERK cascade assay is used to evaluate the effects of the compounds as inhibitors of the MAP kinase pathway. An enzymatic cascade assay is set up using recombinant human activated BRAF (V599E) kinase (Cat No. 14-557), human full length unactive MEK1 kinase (Cat No. 14-706) and human full length unactive MAP Kinase 2/ERK2 (Cat No. 14-536) enzymes procured from Upstate. TR-FRET (Time resolved fluorescence resonance energy transfer) detection technology is used for the read out. The assay buffer solution contains 50 mM Tris pH 7.5, 10 mM MgCl2, 1 mM DTT, 0.01% Tween 20, 0.1 nM activated BRAF, 2 nM unactive MEK1, 10 nM unactive ERK2, 100 μM ATP and 500 nM long chain biotin-peptide substrate (LCB-FFKNIVTPRTPPP) in a 384 well format. The kinase reaction is stopped after 90 minutes with 10 mM EDTA and Lance detection mix (2 nM Eu-labeled phospho-serine/threonine antibody (Cat. No. AD0176-Perkin Elmer), 20 nM SA-APC (Cat No. CR130-100-Perkin Elmer) is added. The TR-FRET signal (Excitation at 340 nm, Emission at 615 nm and 665 nm) is read with 50 μs delay time on a Victor3 V fluorimeter. The data is calculated using the ratio of readings at 665 nm to 615 nm. The final concentration of DMSO is 2.5% in the assay. Compounds are screened at 10 μM concentration with pre-incubation of the enzymes in the presence of test compound for 45 minutes.
Each individual IC50 is determined using a 10 point dose response curve generated by GraphPad Prism software Version 4 (San Diego, Calif., USA) using non linear regression curve fit for sigmoidal dose response (variable slope).
These assays described above are fully detailed in Han, Shulin, et. al., Bioorganic & Medicinal Chemistry Letters (2005) 15, 5467-5473, and in Yeh, et. al., Clin Cancer Res (2007) 13 (5), 1576-1583.
(§1) The compounds of the above Examples were evaluated as inhibitors of the MAP kinase pathway in a BRAF-MEK-ERK enzymatic cascade assay and in the cell viability assay described above.
For orientation: Time-resolved FRET reads energy transfer from a long-lived donor to a nearby acceptor.

Test [2] has as its system A375 cells. Put plainly: cell viability assay in A375 cells using XTT. To be noted: Homo sapiens, A-375, 72 h, XTT read three days after compound addition. Type of test: cell-based. How it is done: The cell viability assay in A375 cells is set up in a 96-well plate format using XTT.
XTT is a yellow tetrazolium salt that is cleaved to an orange formazan dye by the mitochondria of metabolically active cells. The procedure allows for rapid determination in a microtitre plate, to give reproducible and sensitive results.
A375 cells are grown in DMEM media containing 10% FBS and 1 mM sodium pyruvate. Cells are trypsinized and seeded at 1000 cells/well. After allowing the cells to adhere overnight, compound is added to the wells at the following final concentrations: 10, 3, 1, 0.3, 0.1, 0.03, 0.01, 0.001, and 0.0001 μM. The assay is set up in triplicates for each concentration. DMSO concentrations are kept at 0.5%/well. Three days after compound addition, the XTT assay is performed. Wells are washed once with PBS. 100 μL of DMEM media without phenol red or FBS is added to each well. A working solution of XTT containing 1 mg/ml XTT and 100 μL of PMS (stock concentration 0.383 mg/ml) per 5 ml is prepared. 50 μL of the working solution of XTT is added to each well. Absorbance of the plate is read at 465 nm using a Spectramax 190 (Molecular Devices). The absorbance from wells with media and XTT alone, but without cells is considered the blank and subtracted from readings from all wells.
Percentage viability is calculated considering the blank subtracted value from wells treated with DMSO alone as 100% viable. GI50 values are calculated using Graphpad Prism, using non-linear regression curve fit for sigmoidal dose response (variable slope).
The cell viability assay is further described in Scudiero, et. al., Cancer Research (1988) 48, 4827-4833; Weislow, et. al., J. Natl. Cancer Institute, (1989) 81, 577-586; and Roehm, et. al., J. Immunol. Methods [1991]142:257-265.
as §1

For `Cc1c(Nc2ccc(I)cc2F)c(NS(=O)(=O)C2CC2CO)c2n(c1=O)CCO2` (centres unmarked) [Example 8A, 2-Hydroxymethyl-cyclopropanesulfonic acid [7-(2-fluoro-4-iodo-phenylamino)-6-methyl-5-oxo-2,3-dihydro-5H-oxazolo[3,2-a]pyridin-8-yl]-amide], the “% inhibition” value in test [1] amounted to 100%. In addition, the concentration for 50% growth inhibition (GI50) in test [2] is 122 nM.
With `Cc1c(Nc2ccc(I)cc2F)c(NS(=O)(=O)C2(CO)CC2)c2n(c1=O)CCS2` [Example 22A, 1-Hydroxymethyl-cyclopropanesulfonic acid [7-(2-fluoro-4-iodo-phenylamino)-6-methyl-5-oxo-2,3-dihydro-5H-thiazolo[3,2-a]pyridin-8-yl]-amide], the “% inhibition” value in test [1] turned out to be 97%. Besides, the concentration for 50% growth inhibition (GI50) in test [2] was determined as 61 nM.
In the case of `Cc1c(Nc2ccc(I)cc2F)c(NS(=O)(=O)C2CC(O)C2)c2n(c1=O)CCO2` (centres unmarked) [Example 13A, 3-Hydroxy-cyclobutanesulfonic acid [7-(2-fluoro-4-iodo-phenylamino)-6-methyl-5-oxo-2,3-dihydro-5H-oxazolo[3,2-a]pyridin-8-yl]-amide], the “% inhibition” value in test [1] came out at 100%. The compound further came in with a GI50 in test [2] of 122 nM.
Regarding `Cc1c(Nc2ccc(I)cc2F)c(NS(=O)(=O)CC2(C)COC2)c2n(c1=O)CCO2` [Example 16A, N-(7-(2-fluoro-4-iodophenylamino)-6-methyl-5-oxo-3,5-dihydro-2H-oxazolo[3,2-a]pyridin-8-yl)-1-(3-methyloxetan-3-yl)methanesulfonamide], the “% inhibition” value in test [1] was 100%. Besides, growth in test [2] was halved (GI50) at 1300 nM.
On to `Cc1c(Nc2ccc(Br)cc2F)c(NS(=O)(=O)C2CC2)c2n(c1=O)CCN2` [Example 2A, Cyclopropanesulfonic acid [7-(4-bromo-2-fluoro-phenylamino)-6-methyl-5-oxo-1,2,3,5-tetrahydro-imidazo[1,2-a]pyridin-8-yl]-amide], for which the “% inhibition” value in test [1] was found to be 100%. Moreover, in test [2], it took 800 nM to inhibit growth by half (GI50).
Take `Cc1c(Nc2ccc(I)cc2F)c(NS(=O)(=O)C2CC2)c2n(c1=O)CCN2` [Example 3A, Cyclopropanesulfonic acid [7-(2-fluoro-4-iodo-phenylamino)-6-methyl-5-oxo-1,2,3,5-tetrahydro-imidazo[1,2-a]pyridin-8-yl]-amide]: the “% inhibition” value in test [1] is 100%. Growth in test [2] was halved (GI50) at 19 nM.
Take `Cc1c(Nc2ccc(I)cc2F)c(NS(=O)(=O)C2CCC2)c2n(c1=O)CCS2` [Example 26A, Cyclobutanesulfonic acid [7-(2-fluoro-4-iodo-phenylamino)-6-methyl-5-oxo-2,3-dihydro-5H-thiazolo[3,2-a]pyridin-8-yl]-amide]: in test [1], the “% inhibition” value was found to be 100%. This compound also showed a GI50 in test [2] of 156 nM.
The like results for `Cc1c(Nc2ccc(I)cc2F)c(NS(=O)(=O)CCC(CO)CO)c2n(c1=O)CCO2` [Example 18A, N-(7-(2-fluoro-4-iodophenylamino)-6-methyl-5-oxo-3,5-dihydro-2H-oxazolo[3,2-a]pyridin-8-yl)-4-hydroxy-3-(hydroxymethyl)butane-1-sulfonamide] were, in that order, 100% and 4260 nM.
For the compound `Cc1c(Nc2ccc(Br)cc2F)c(NS(=O)(=O)C2(CC(O)CO)CC2)c2n(c1=O)CCN2` (centres unmarked) [Example 4A, 1-(2,3-Dihydroxy-propyl)-cyclopropanesulfonic acid [7-(4-bromo-2-fluoro-phenylamino)-6-methyl-5-oxo-1,2,3,5-tetrahydro-imidazo[1,2-a]pyridin-8-yl]-amide], the “% inhibition” value in test [1] amounted to 100%. It took 2880 nM to inhibit growth in test [2] by half (GI50).
Turning to `Cc1c(Nc2ccc(I)cc2F)c(NS(=O)(=O)C2CCC2)c2n(c1=O)CCO2` [Example 14A, Cyclobutanesulfonic acid [7-(2-fluoro-4-iodo-phenylamino)-6-methyl-5-oxo-2,3-dihydro-5H-oxazolo[3,2-a]pyridin-8-yl]-amide], in test [1], the “% inhibition” value is reported as 100%. Moreover, in test [2], the GI50 stood at 16 nM.
Turning to `Cc1c(Nc2ccc(I)cc2F)c(NS(=O)(=O)C2(CC(O)CO)CC2)c2n(c1=O)CCS2` (centres unmarked) [Example 20A, 1-(2,3-Dihydroxy-propyl)-cyclopropanesulfonic acid [7-(2-fluoro-4-iodo-phenylamino)-6-methyl-5-oxo-2,3-dihydro-5H-thiazolo[3,2-a]pyridin-8-yl]-amide], the “% inhibition” value in test [1] is 100%. For the same compound, in test [2], halving of growth (GI50) required 54 nM.
Take `Cc1c(Nc2ccc(I)cc2F)c(NS(=O)(=O)C2(CC(O)CO)CC2)c2n(c1=O)CCN2` (centres unmarked) [Example 5A, 1-(2,3-Dihydroxy-propyl)-cyclopropanesulfonic acid [7-(2-fluoro-4-iodo-phenylamino)-6-methyl-5-oxo-1,2,3,5-tetrahydro-imidazo[1,2-a]pyridin-8-yl]-amide]: the “% inhibition” value in test [1] turned out to be 100%. The same compound registered a GI50 in test [2] of 293 nM.
Turning to `Cc1c(Nc2ccc(I)cc2F)c(NS(=O)(=O)C2CC2CO)c2n(c1=O)CCS2` (centres unmarked) [Example 21A, 2-Hydroxymethyl-cyclopropanesulfonic acid [7-(2-fluoro-4-iodo-phenylamino)-6-methyl-5-oxo-2,3-dihydro-5H-thiazolo[3,2-a]pyridin-8-yl]-amide], the “% inhibition” value in test [1] came to 100%. For the same compound, the GI50 in test [2] turned out to be 158 nM.
With `Cc1c(Nc2ccc(I)cc2F)c(NS(=O)(=O)C2CC(C(CO)CO)C2)c2n(c1=O)CCO2` (centres unmarked) [Example 15A, 3-(1,3-dihydroxypropan-2-yl)-N-(7-(2-fluoro-4-iodophenylamino)-6-methyl-5-oxo-3,5-dihydro-2H-oxazolo[3,2-a]pyridin-8-yl)cyclobutane-1-sulfonamide], in test [1], the “% inhibition” value came out at 100%. It took 1530 nM to inhibit growth in test [2] by half (GI50).
As to `Cc1c(Nc2ccc(I)cc2F)c(NS(=O)(=O)N(C)C)c2n(c1=O)CCS2` [Example 23A, N-[7-(2-Fluoro-4-iodo-phenylamino)-6-methyl-5-oxo-2,3-dihydro-5H-thiazolo[3,2-a]pyridin-8-yl]-dimethylaminosulfonamide], the “% inhibition” value in test [1] was 100%. Besides, it took 107 nM to inhibit growth in test [2] by half (GI50).
The matching figures for `Cc1c(Nc2ccc(I)cc2F)c(NS(=O)(=O)C2CC(O)C2)c2n(c1=O)CCS2` (centres unmarked) [Example 25A, 3-Hydroxy-cyclobutanesulfonic acid [7-(2-fluoro-4-iodo-phenylamino)-6-methyl-5-oxo-2,3-dihydro-5H-thiazolo[3,2-a]pyridin-8-yl]-amide]: 100% and 922 nM.

In general, % inhibition refers to the drop in the measured response relative to a control, in per cent. Low readings indicate little suppression, high ones strong suppression. The GI50 is the concentration giving 50% growth inhibition. Read a low GI50 as more potent growth inhibition.
